Measured values published in patent US7314937B2, “Non-imidazole aryl alkylamines compounds as histamine H3 receptor antagonists, preparation and therapeutic uses” (Eli Lilly and Company, priority 2002, dated 2008).
Like-named read-outs stand apart in the source and are kept apart here.

Columns and labels:
[1] = target: T1, human histamine 2 receptor (Homo sapiens, UniProt P25021); test: Competitive SPA binding assay, H2R, 3H-tiotidine; conditions: selectivity study Table 2, read-out: Ki (nM) H2
T1 construct: expressed in transfected cells; membranes
Procedure: B. Preparation H2R Membranes
cDNA for the human histamine 2 receptor was cloned, expressed and transfected into HEK 293 cells as described above. Histamine binding to cells was assayed by SPA described above. For total binding, cells were assayed in a SPA reaction containing 50 mM Tris-HCl (assay buffer), pH 7.6, 1 mg wheat germ agglutinin SPA beads (Amersham Pharmacia Biotech, #RPNQ0001), and 6.2 nM ^3H-tiotidine (Net-688, NEN) (total volume per well=200 μl). Cimetidine (10 μM, Sigma #C4522) was added to appropriate wells to determine non-specific binding.
Several clones were selected as positive for binding, and a single clone (H2R10) was used to prepare membranes for binding studies. Five micrograms of protein was used per well in the SPA receptor-binding assay.
(§1) To investigate the selectivity of the antagonists for the histamine receptors, a competitive binding assay described above was performed. […] Until the present invention, most known H3R antagonists also bound H4R.

[2] = target: T2, human GPRv53 receptor (H4R) (Homo sapiens, UniProt Q9H3N8); test: Competitive binding assay, GPRv53 (H4R), [3H]histamine; conditions: for inhibition of binding to H4R compared to H3R: in words; for Ki: selectivity study Table 2
T2 construct: expressed in transfected cells; host or cells: HEK293 GPRv53 50 cells; homogenised whole-cell lysates
Procedure: D. Preparation of GPRv53 Membranes
cDNA for the human GPRv53 receptor was cloned and expressed as described in Example 1, above. Transfected cells were selected, tested for histamine binding, and selected. HEK293 GPRv53 50 cells were grown to confluency in DMEM/F12 (Gibco) supplemented with 5% FBS and 500 ug/ml G418 and washed with Delbecco's PBS (Gibco) and harvested by scraping. Whole cells were homogenized with a Polytron tissuemizer in binding buffer, 50 mM Tris pH 7.5. Cell lysates, 50 ug, were incubated in 96 well dishes with 3 nM (3H) Histamine and compounds in binding buffer for 2 hours at room temperature. Lysates were filtered through glass fiber filters (Perkin Elmer) with a Tomtec cell harverster. Filters were counted with melt-on scintillator sheets (Perkin Elmer) in a Wallac Trilux 1450 Microbeta Scintillation counter for 5 minutes.
as §1

[3] = target: T3, human histamine 3 receptor (H3R) (Homo sapiens, UniProt Q9Y5N1); test: Competitive inhibition SPA radioligand binding assay, H3R
T3 construct: expressed in transfected cells; membranes
From the text: The inventive compounds can readily be evaluated by using a competitive inhibition Scintillation Proximity Assay (SPA) based on a H3R binding assay using [3H] a methylhistamine as ligand. Stable cell lines, including but not limited to HEK can be transfected with cDNA coding for H3R to prepare membranes used for the binding assay. The technique is illustrated below (Example 3) for the histamine receptor subtypes.
C. Preparation of H3R Membranes
(§2) cDNA for the human histamine 3 receptor was cloned and expressed as described in Example 1, above. Transfected cells were selected using G418 ([…]), grown, and tested for histamine binding by the SPA described above. For total binding, cells were assayed in a SPA reaction described above containing 50 mM Tris-HCL (assay buffer), pH 7.6, 1 mg wheat germ agglutinin SPA beads (Amersham Pharmacia Biotech, #RPNQ0001), and 1 nM (^3H)-n-alpha-methylhistamine (NEN, NET1027) (total volume per well=200 μl). Thioperimide was added to determine non-specific binding. Several clones were selected as positive for binding, and a single clone (H3R8) was used to prepare membranes for binding studies described above. Five micrograms of protein was used per well in the SPA receptor-binding assay.
To investigate the selectivity of the antagonists for the histamine receptors, a competitive binding assay described above was performed. […]

[4] = Rat pharmacokinetics, iv and po, LC/MS/MS; format: in vivo, Male Sprague Dawley Rats; conditions: 10 mg/kg po; for oral bioavailability (AUC 0-24 hr; po/iv ratio): 3 mg/kg iv; for half-life: male, Sprague Dawley, read-out: oral half-life (±SEM) (converted)
Procedure: Non-imidazole containing histamine H3 receptor antagonists disclosed in the literature generally have very poor pharmacokinetic properties (see J. Apelt, et al, J. Med. Chem. 2002,45,1128-1141). […] Male Sprague Dawley Rats (n=3 per dose arm) were separately dosed with 3 mg/kg iv or 10 mg/kg po of compound examples 131 and 271 (vehicle: 5% ethanol/water or water respectively; dose volume: 1 mL/kg iv, 10 mL/kg po). Approximately 0.5 mL of blood was collected in heparin collection tubes at multiple time points over an 8 or 24-hour period for examples 131 and 271 respectively, and the samples were analyzed using LC/MS/MS.

[5] = target: T4, human histamine 1 receptor (H1R) (Homo sapiens, UniProt P35367); test: Competitive SPA binding assay, H1R, 3H-pyrilamine; conditions: selectivity study Table 2
T4 construct: expressed in transfected cells; membranes
Procedure: A. Preparation H1R Membranes
cDNA for the human histamine 1 receptor (H1R) was cloned into a mammalian expression vector containing the CMV promoter (pcDNA3.1 (+), Invitogen) and transfected into HEK293 cells using the FuGENE Tranfection Reagent (Roche Diagnostics Corporation). Transfected cells were selected using G418 (500 μ/ml). Colonies that survived selection were grown and tested for histamine binding to cells grown in 96-well dishes using a scintillation proximity assay (SPA) based radioligand binding assay. Briefly, cells, representing individual selected clones, were grown as confluent monolayers in 96-well dishes (Costar Clear Bottom Plates, #3632) by seeding wells with 25,000 cells and growing for 48 hours (37° C., 5% CO2). Growth media was removed and wells were rinsed two times with PBS (minus Ca^2+ or Mg^2+). For total binding, cells were assayed in a SPA reaction containing 50 mM Tris-HCL (assay buffer), pH 7.6, 1 mg wheat germ agglutinin SPA beads (Amersham Pharmacia Biotech, #RPNQ0001), and 0.8 nM ^3H-pyrilamine (Net-594, NEN) (total volume per well=200 μl). Astemizole (10 μM, Sigma #A6424) was added to appropriate wells to determine non-specific binding. Plates were covered with FasCal and incubated at room temperature for 120 minutes. […] Plates were counted in a Wallac Trilux 1450 Microbeta scintillation counter. […]

[6] = target: T5, H3R membranes (H3R8-expressing HEK293 cell line) (Homo sapiens, UniProt Q9Y5N1); test: [35S]GTPγS binding assay (antagonist inhibition of agonist-stimulated binding); format: biochemical; conditions: inhibition of [35S]GTPγS binding to H3R membranes in presence of agonist R(-) alpha methylhistamine
T5 construct: expressed in transfected cells; membranes
Procedure: Membranes isolated as described in Example 3 were used in a [^35S]GTPχS functional assay. Binding of [^35S]GTPχS to membranes indicates agonist activity. Compounds of the invention of Formula I were tested for their ability to inhibit binding in the presence of agonists. Alternately, the same transfected cell lines were used for a cAMP assay wherein H3R agonists inhibited forskolin-activated synthesis of cAMP. Compounds of Formula I were tested for their ability to permit forskolin-stimulated cAMP synthesis in the presence of agonist.
as §2, with “Several clones were selected as positive for binding, and a single clone (H3R8) was used to prepare membranes for binding studies described above. Five micrograms of protein was used per well in the SPA receptor-binding assay.” left out
Antagonist activity of selected compounds was tested for inhibition of [^35S] […] Plates were counted in Wallac Trilux 1450 Microbeta scintillation counter for 1 minute. […]

T1 sequence (P25021 whole entry): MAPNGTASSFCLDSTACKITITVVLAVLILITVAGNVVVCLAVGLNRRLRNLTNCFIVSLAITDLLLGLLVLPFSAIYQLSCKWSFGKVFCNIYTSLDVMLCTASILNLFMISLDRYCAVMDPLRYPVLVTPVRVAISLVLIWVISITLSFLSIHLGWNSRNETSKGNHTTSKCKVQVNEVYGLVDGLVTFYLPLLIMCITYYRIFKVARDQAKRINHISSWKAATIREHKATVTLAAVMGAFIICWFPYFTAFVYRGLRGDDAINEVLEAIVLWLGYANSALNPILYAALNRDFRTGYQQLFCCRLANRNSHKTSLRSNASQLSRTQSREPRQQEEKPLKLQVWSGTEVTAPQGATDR
T4 sequence (P35367 whole entry): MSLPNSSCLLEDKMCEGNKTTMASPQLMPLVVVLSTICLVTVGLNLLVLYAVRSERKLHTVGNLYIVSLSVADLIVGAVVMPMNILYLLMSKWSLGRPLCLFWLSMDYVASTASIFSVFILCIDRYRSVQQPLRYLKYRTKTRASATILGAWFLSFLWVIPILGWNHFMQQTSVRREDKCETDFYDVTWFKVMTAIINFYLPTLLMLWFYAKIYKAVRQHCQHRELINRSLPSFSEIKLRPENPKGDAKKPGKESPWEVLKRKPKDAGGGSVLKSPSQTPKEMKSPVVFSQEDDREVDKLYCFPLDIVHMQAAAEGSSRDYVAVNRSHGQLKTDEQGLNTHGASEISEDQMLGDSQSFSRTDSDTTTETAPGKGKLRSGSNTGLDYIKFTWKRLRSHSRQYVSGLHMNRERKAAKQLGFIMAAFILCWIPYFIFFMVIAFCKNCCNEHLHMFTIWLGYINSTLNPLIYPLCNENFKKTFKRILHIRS
T3 sequence (Q9Y5N1 whole entry): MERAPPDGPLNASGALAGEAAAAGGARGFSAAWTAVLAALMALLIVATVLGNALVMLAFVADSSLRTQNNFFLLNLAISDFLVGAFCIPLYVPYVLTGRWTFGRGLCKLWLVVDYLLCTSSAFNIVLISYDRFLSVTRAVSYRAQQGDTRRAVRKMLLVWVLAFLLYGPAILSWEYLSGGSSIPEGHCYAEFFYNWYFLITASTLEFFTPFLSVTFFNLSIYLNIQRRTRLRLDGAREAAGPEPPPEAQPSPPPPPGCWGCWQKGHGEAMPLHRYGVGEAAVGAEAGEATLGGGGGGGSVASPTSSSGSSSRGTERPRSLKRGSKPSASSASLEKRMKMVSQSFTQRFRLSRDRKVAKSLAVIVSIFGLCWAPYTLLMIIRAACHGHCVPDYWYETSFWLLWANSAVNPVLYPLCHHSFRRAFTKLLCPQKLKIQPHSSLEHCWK
T5 sequence (Q9Y5N1 whole entry): as above

Row | Ki ([3]; competitive binding, selectivity study Table 2, read-out: Ki (nM) H3R) [nM] | half-life ([4]; blood) [h] | Ki [6] [nM] | SMILES | Ki [1] [nM] | inhibition of binding to H4R compared to H3R [2] | Ki [2] [nM] | oral bioavailability (AUC 0-24 hr; po/iv ratio) [4] [%] | Ki [5] [nM] | half-life ([4]; in vivo) [h] | Ki [3] [nM]
1 | 1.05 | 10.4 ± 4.2 |  | O=C(c1ccc(OCCN2CCCCC2)cc1)N1CCC[C@H]1CN1CCCC1 [Example 131] | ≥ 20000 | did not inhibit binding H4R | ≥ 20000 | 58 | ≥ 20000 |  | 
2 |  |  |  | CCN1CCc2ccc(OCCCN3CCCCC3)cc2C1.Cl.Cl [Example 271, 2-Ethyl-7-(3-Piperidin-1-yl-propoxy)-1,2,3,4-tetrahydro-isoquinoline dihydrochloride] |  |  |  | 69 |  | 71.9 ± 3.3 | 
3 |  |  | 1.4 | CCN(CC)CCCOc1ccc(C(C)N(C)CCN(C)C)cc1 (stereo not drawn) [Example 1] |  |  |  |  |  |  | 
4 |  |  |  | CCN1CCc2cc(OCCCN3CCCCC3)ccc2C1.Cl.Cl [Example 250, 2-Ethyl-6-(3-piperidin-1-yl-propoxy)-1,2,3,4-tetrahydro-isoquinoline dihydrochloride] | 1110 | did not inhibit binding H4R | ≥ 20000 |  | 1020 |  | 0.37
